Measured values reported in patent US20220056019A1, “FARNESOID X RECEPTOR AGONISTS AND USES THEREOF” (Metacrine, Inc., priority 2018, published 2022).

Each compound was assayed against T1, hFXR (Homo sapiens, UniProt Q96RI1) (assay: In Vitro FXR Assay (TK): TK-ECRE-luc reporter in transfected CV-1 cells). Details: 18 hrs incubation, luminescence.
T1 construct: expressed in transfected cells; host or cells: CV-1 cells
T1 sequence (Q96RI1 1-486): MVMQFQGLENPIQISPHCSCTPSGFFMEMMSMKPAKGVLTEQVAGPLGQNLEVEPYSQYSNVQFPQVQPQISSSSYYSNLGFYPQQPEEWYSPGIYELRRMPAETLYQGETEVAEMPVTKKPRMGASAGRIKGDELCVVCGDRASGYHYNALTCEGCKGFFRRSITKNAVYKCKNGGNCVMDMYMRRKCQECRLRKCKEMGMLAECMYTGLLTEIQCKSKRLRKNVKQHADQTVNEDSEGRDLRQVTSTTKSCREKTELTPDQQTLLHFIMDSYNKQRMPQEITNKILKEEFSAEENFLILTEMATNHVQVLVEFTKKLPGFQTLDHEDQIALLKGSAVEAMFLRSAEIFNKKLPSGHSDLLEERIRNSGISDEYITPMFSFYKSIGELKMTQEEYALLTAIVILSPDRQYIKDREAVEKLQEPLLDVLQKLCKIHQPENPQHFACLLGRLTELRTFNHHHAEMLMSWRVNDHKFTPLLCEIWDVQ
T1 sequence (P19793 1-462 partner): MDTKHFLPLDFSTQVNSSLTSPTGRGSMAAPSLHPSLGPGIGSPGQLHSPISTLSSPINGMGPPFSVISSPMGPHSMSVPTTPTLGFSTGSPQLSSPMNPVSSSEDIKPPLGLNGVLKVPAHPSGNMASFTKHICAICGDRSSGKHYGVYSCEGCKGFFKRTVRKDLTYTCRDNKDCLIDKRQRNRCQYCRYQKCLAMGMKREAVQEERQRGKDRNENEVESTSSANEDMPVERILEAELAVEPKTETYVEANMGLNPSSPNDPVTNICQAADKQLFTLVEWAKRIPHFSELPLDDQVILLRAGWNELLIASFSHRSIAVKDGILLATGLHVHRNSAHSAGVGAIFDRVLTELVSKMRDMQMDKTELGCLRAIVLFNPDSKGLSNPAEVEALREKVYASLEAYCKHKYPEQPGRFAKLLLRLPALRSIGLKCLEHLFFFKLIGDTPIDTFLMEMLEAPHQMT
Assay type: cell-based
In short: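 CV-1, DMEM/10% charcoal-stripped FBS, 37 °C 5% CO2. Transfection O/N: hFXR + hRXR + TK-ECRE-luc + pCMX-YFP. Cpds (DMSO serial dil.) 18 h; lyse, read luminescence.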

Compound | EC50 [nM]
COc1ccc(C23CCC(CN(c4cc(-c5cnn(C(C)C)c5)c(Cl)cn4)C(=O)[C@H]4CC[C@H](OC(=O)N5CC(O)C5)CC4)(CC2)CC3)cc1C [Compound 26.01, 4-((5-Chloro-4-(1-isopropyl-1H-pyrazol-4-yl)pyridin-2-yl)((4-(4-methoxy-3-methylphenyl)bicyclo[2.2.2]octan-1-yl)methyl)carbamoyl)(trans-cyclohexyl) 3-hydroxyazetidine-1-carboxylate] | ≤ 50
COc1ccc(C23CCC(CN(c4cc(-c5cnn(C(C)C)c5)ccn4)C(=O)[C@H]4CC[C@H](NC(=O)OC5CCOCC5)CC4)(CC2)CC3)cc1C [Compound 7.03, (trans)-Tetrahydro-2H-pyran-4-yl (4-((4-(1-isopropyl-1H-pyrazol-4-yl)pyridin-2-yl)((4-(4-methoxy-3-methylphenyl)bicyclo[2.2.2]octan-1-yl)methyl)carbamoyl)cyclohexyl) carbamate] | ≤ 50
COc1ccc([C@H]2CC[C@H](CN(c3cc(-c4cnn(C(F)(F)F)c4)ccn3)C(=O)[C@H]3CC[C@H](OC(=O)N4CC(O)C4)CC3)CC2)cc1C [Compound 2.57, trans-4-((((trans)-4-(4-Methoxy-3-methylphenyl)cyclohexyl)methyl) (4-(1-(trifluoromethyl)-1H-pyrazol-4-yl)pyridin-2-yl)carbamoyl)cyclohexyl 3-hydroxyazetidine-1-carboxylate] | ≤ 50
COc1c(C)cc(C23CCC(CN(c4cc(-c5cnn(C(C)C)c5)ccn4)C(=O)[C@H]4CC[C@H](OC(=O)N5CC(O)C5)CC4)(CC2)CC3)cc1F [Compound 26.05, 4-(((4-(3-Fluoro-4-methoxy-5-methylphenyl)bicyclo[2.2.2]octan-1-yl)methyl)(4-(1-isopropyl-1H-pyrazol-4-yl)pyridin-2-yl)carbamoyl)cyclohexyl trans-3-hydroxyazetidine-1-carboxylate] | ≤ 50

Now from value to compound:

EC50 [nM] | Compound
≤ 50 | COc1ccc(C23CCC(CN(c4cc(-c5cnn(C(C)C)c5)ccn4)C(=O)[C@H]4CC[C@H](OC(=O)N5CC(OCCO)C5)CC4)(CC2)CC3)cc1C [Compound 4.10, 4-((4-(1-Isopropyl-1H-pyrazol-4-yl)pyridin-2-yl)((4-(4-methoxy-3-methylphenyl)bicyclo [2.2.2]octan-1-yl)methyl)carbamoyl)cyclohexyl 3-(2-hydroxyethoxy) azetidine- trans-1-carboxylate]
50 to 1000 | COc1ccc([C@H]2CC[C@H](CN(c3cccc(-c4cnn(C(C)C)c4)c3)C(=O)[C@H]3CC[C@H](NC(=O)CC4CCOCC4)CC3)CC2)cc1C [Compound 10.03, trans-N-(3-(1-Isopropyl-1H-pyrazol-4-yl)phenyl)-N-((trans-4-(4-methoxy-3-methylphenyl)cyclohexyl)methyl)-4-(2-(tetrahydro-2H-pyran-4-yl)acetamido)cyclohexanecarboxa-mide]
≤ 50 | COc1ccc(C23CCC(CN(c4cc(-c5cnn(C(C)C)c5)ccn4)C(=O)[C@H]4CC[C@H](NC(=O)CO)CC4)(CC2)CC3)cc1C [Compound 9.02, trans-4-(2-Hydroxyacetamido)-N-(4-(1-isopropyl-1H-pyrazol-4-yl)pyridin-2-yl)-N-((4-(4-methoxy-3-methylphenyl)bicyclo[2.2.2]octan-1-yl)methyl)cyclohexanecarboxamide]
≤ 50 | COc1ccc(C23CCC(CN(c4cc(-c5cnc(C(C)C)s5)ccn4)C(=O)[C@H]4CC[C@H](OC(=O)N5CC(OCCO)C5)CC4)(CC2)CC3)cc1C [Compound 4.38, 4-((4-(2-Isopropylthiazol-5-yl)pyridin-2-yl)((4-(4-methoxy-3-methylphenyl)bicyclo[2.2.2]octan-1-yl)methyl)carbamoyl) (trans-cyclohexyl) 3-(2-hydroxyethoxy)azetidine-1-carboxylate]
